Source: paper PMC11157481, “Mechanochemical Synthesis of New Praziquantel Cocrystals: Solid-State Characterization and Solubility” (Crystal Growth & Design, 2024)
Where two headings read alike, the source gives them in different places.

Assay: Equilibrium solubility by the shake-flask method with HPLC-UV analysis
Assay type: physicochemical
Conditions: for [PZQ] in SCF attained in 24 hours / [PZQ] in SGF attained in 24 hours / [PZQ] in SIF attained in 24 hours / [PZQ] in H2O attained in 24 hours / solubility thermodynamic at 24 h: shake-flask; for [PZQ] in SCF attained in 24 hours / [PZQ] in SGF attained in 24 hours / [PZQ] in SIF attained in 24 hours / [PZQ] in H2O attained in 24 hours: n = 3; for Increase in solubility in SIF compared to PZQ alone: 24 h, relative to pure PZQ; for solubility thermodynamic at 24 h: thermodynamic from solid
Method: The stock solution of PZQ (2 mg/mL) was prepared by dissolving the pure compound in MeCN. Corresponding aliquots were diluted with the same solvent for the preparation of working PZQ solutions. Samples of 10 μL were injected into the chromatographic system. […] Ultrapure water was used as the reference dissolution medium. The solubility of the obtained PZQ cocrystals was determined by the shake-flask method. Briefly, excess PZQ and PZQ cocrystals (the corresponding amount of 6 mg of PZQ) were added to 2 mL vials containing 2 mL of the dissolution medium. The slurry samples were placed in an orbital shaker to achieve uniform mixing at 37 °C for 24 h. At different time intervals (10, 20, 30, 40, 50, 60, and 90 min), an aliquot of 200 μL of each sample was collected after centrifugation, filtered, and analyzed concerning the PZQ content by HPLC-UV analysis.
The solubilities of each cocrystal and PZQ were tested in ultrapure water and the three dissolution media, simulating the biorelevant fluids present along the entire gastrointestinal tract, namely, SGF (simulated gastric fluid), SIF (simulated intestinal fluid), and SCF (simulated colonic fluid).

[1] = simulated colonic fluid pH 7.8, 37 °C
[2] = simulated gastric fluid pH 1.5, 37 °C
[3] = simulated intestinal fluid pH 7.4, 37 °C

Compound	[PZQ] in SCF attained in 24 hours [1]	[PZQ] in SGF attained in 24 hours [2]	[PZQ] in SIF attained in 24 hours [3]	[PZQ] in H2O attained in 24 hours (ultrapure water, 37 °C)	Increase in solubility in SIF compared to PZQ alone	solubility thermodynamic at 24 h (simulated colonic fluid (SCF), fassgf or other biorelevant, simulated colonic fluid pH 7.8, 37 °C, n = 3, read-out: [PZQ] in SCF attained in 24 hours)	solubility thermodynamic at 24 h (simulated gastric fluid (SGF), simulated gastric fluid pH 1.5, 37 °C, n = 3, read-out: [PZQ] in SGF attained in 24 hours)	solubility thermodynamic at 24 h (simulated intestinal fluid (SIF), fassgf or other biorelevant, simulated intestinal fluid pH 7.4, 37 °C, n = 3, read-out: [PZQ] in SIF attained in 24 hours)	solubility thermodynamic at 24 h (ultrapure water, 37 °C, n = 3, read-out: [PZQ] in H2O attained in 24 hours)
O.O=C(C1CCCCC1)N1CC(=O)N2CCc3ccccc3C2C1.O=C(O)c1ccccc1O (stereo not drawn) [Co-Crystal 6, PZQ – SALICYLIC ACID (SAL) – H2O]	258.43 µg/mL	202.80 µg/mL	246.81 µg/mL	220.38 µg/mL	–	–	–	–	–
O=C(C1CCCCC1)N1CC(=O)N2CCc3ccccc3C2C1.O=C(C1CCCCC1)N1CC(=O)N2CCc3ccccc3C2C1.O=C(O)c1cccc(O)c1 (stereo not drawn) [Co-Crystal 9, PZQ – 3-HYDROXYBENZOIC ACID (3HBA) (2:1)]	257.95 µg/mL	231.45 µg/mL	226.47 µg/mL	248.12 µg/mL	–	–	–	–	–
O=C(C1CCCCC1)N1CC(=O)N2CCc3ccccc3C2C1.O=C(O)C(=O)O (stereo not drawn) [Co-Crystal 8, PZQ – OXALIC ACID (OXA)]	252.98 µg/mL	238.78 µg/mL	229.26 µg/mL	250.12 µg/mL	–	–	–	–	–
O=C(C1CCCCC1)N1CC(=O)N2CCc3ccccc3C2C1.O=C(O)c1ccc(O)cc1 (stereo not drawn) [Co-Crystal 5, PZQ – 4-HYDROXYBENZOIC ACID (4HBA)]	247.22 µg/mL	203.21 µg/mL	217.86 µg/mL	225.06 µg/mL	–	–	–	–	–
PZQ – TRIMESIC ACID (TRI) – H2O [Co-Crystal 4]	193.95 µg/mL	44.98 µg/mL	242.32 µg/mL	56.09 µg/mL	1.26 fold	–	–	–	–
O=C(C1CCCCC1)N1CC(=O)N2CCc3ccccc3C2C1 (stereo not drawn) [Co-Crystal 12, praziquantel]	–	–	–	–	–	220 µg/mL	200 µg/mL	193 µg/mL	211 µg/mL
PZQ – 5-HYDROXYISOPHTHALIC ACID (5HIP) – MeCN [Co-Crystal 1]	122.86 µg/mL	85.70 µg/mL	361.00 µg/mL	95.51 µg/mL	1.87 fold	–	–	–	–
PZQ – 4-AMINOSALICYLIC ACID (4ASA) – MeCN [Co-Crystal 3]	294.31 µg/mL	323.31 µg/mL	264.29 µg/mL	278.89 µg/mL	–	–	–	–	–
O=C(C1CCCCC1)N1CC(=O)N2CCc3ccccc3C2C1.O=C(O)c1cccc(O)c1 (stereo not drawn) [Co-Crystal 7, PZQ – 3-HYDROXYBENZOIC ACID (3HBA) (1:1)]	251.67 µg/mL	214.21 µg/mL	232.31 µg/mL	252.60 µg/mL	1.2 fold	–	–	–	–
